From patent US9688633B2, “Substituted piperidines with antiparasitic activity” (INSTITUT DE RECHERCHE POUR LE DEVELOPPEMENT, priority 2014, dated 2017)
Like-named read-outs stand apart in the source and are kept apart here.

Columns and labels:
VERO cells = test: Toxicity assay, MTT viability on VERO cells; format: cell-based, African Green Monkey; details: VERO cells survival, 48 hours, MTT; average of three independent determinations; read-out: TC50 (the source's name)
Protocol: (§1) Drugs were added at different concentrations and the cells were cultured for 48 hours. The effect was determined using the 3-(4,5-dimethylthiazol-2-yl)-2,5-diphenyltetrazolium bromide (MTT) viability assay. Four hours after the addition of MTT, 100 μl of lysis buffer (50% isopropanol, 30% water, 20% SDS) were added and the cells were incubated at room temperature for 15 min under agitation. Finally, optical density was read at 590 nm with a 96-well scanner (Bio-Rad). All experiments were performed in triplicate.

[1] = test system: Plasmodium falciparum FCR-3; test: In vitro antiplasmodial drug assay ([3H]-hypoxanthine incorporation); format: cell-based
Protocol: The drugs dissolved in dimethylsulfoxide (DMSO) were added at final concentrations ranging from 200 to 0.1 μM. All experiments were performed in triplicate. The final DMSO concentration was never greater than 0.1%. […].
% Inhibition of the incorporation of labeled hypoxanthine=100−(P/T*100),
P: c.p.m. for every concentration, and
T: negative control (red blood cells without drug).

P. berghei ANKA = test: In vivo antiplasmodial drug assay (4-day suppressive test) in murine model; details: Swiss male mice, 4 consecutive days, read on day 4
Protocol: The antiplasmodial activity of Compound 7 was tested in vivo in a murine model. The antiplasmodial activity of a Compound A representative of the prior art was also tested: Studies were conducted according to the French and Colombian guidelines on laboratory animal use and care (No 2001-464 and No 008430, respectively). The classical 4-day suppressive test was carried out (W. Peters, Chemotherapy and drug resistance in malaria, Academic Press: London, 1970). Swiss male mice weighing 20±2 g, were infected with 10^7 P. berghei ANKA parasitized cells (day 0). […] […] Survival of the mice was checked daily and the percentage of parasitized erythrocytes was determined on day 4, by Giemsa-stained thin blood smears made from peripheral blood. The percentage of inhibition of parasitaemia was calculated.

[2] = Toxicity assay, MTT viability on VERO cells; format: cell-based, African Green Monkey; details: African green monkey
Protocol: as §1

mice = test: Cytotoxicity (toxicity) after administration in a malaria murine model; format: in vivo, mouse; details: 50 mg·kg^-1, malaria murine model
Protocol: The cytotoxicity of Compound 7 was compared to the cytotoxicity of Compound 31 of the publication of Silvia Perez-Silanes et al., Molecules 2009, 14, 4120-4135, the compounds only differentiated by the nature of the Ar group (4-fluoro-1-phenyl group vs benzo[b]thiophenyl).
Both compounds were administered at 50 mg·kg^−1 in a malaria murine model.

[3] = chloroquine-resistant FCR-3 strain, 50% of Plasmodium falciparum growth, average of three independent determinations, read-out: IC50
[4] = FCR3, chloroquine-resistant FCR-3 strain, 50% of Plasmodium falciparum growth, average of three independent determinations, read-out: IC50

Q: Which results are given for “3-[4-(4-fluorophenyl)-3,6-dihydropyridin-1(2H)-yl]-1-(4-(trifluoromethyl phenyl)propan-1-ol) [Compound 4]”?
A: CC50 (VERO cells): > 100 µM; IC50 [1, 3]: 5.6 µM

Q: What does the source list for CCN(CC)CCCC(C)Nc1ccnc2cc(Cl)ccc12 (stereo not drawn) [CQ, chloroquine, reference compound]?
A: IC50 ([1]; Plasmodium falciparum, FCR3): 0.13 µM; percentage of inhibition of parasitaemia (P. berghei ANKA; 3 mg/kg/day oral): 65%

Q: What does the source list for OC(CCN1CC=C(c2ccc(F)cc2)CC1)c1ccc2ccccc2c1 (stereo not drawn) [Compound 3, 3-[4-(4-fluorophenyl)-3,6-dihydropyridin-1(2H)-yl]-1-(naphthalen-2-yl)propan-1-ol]?
A: CC50 at 48 h [2]: > 100 µM; melting point: 127 to 129 °C; IC50 [1, 4]: 36.1 µM

Q: Which CC50 at 48 h ([2]; VERO cells (kidney epithelial cells), VERO cells survival, 48 hours, MTT, average of three independent determinations, read-out: TC50) does the source give for O=[N+]([O-])c1ccc(N2CCC(NCCC(O)c3ccc(F)c4ccccc34)CC2)c(C(F)(F)F)c1 (stereo not drawn) [Compound 5, 1-(4-fluoronaphthalen-1-yl)-3-((1-(4-nitro-2-(trifluoromethyl)phenyl)piperidin-4-yl)amino)propan-1-ol] here?
A: 5.5 µM

Q: What about the IC50 [1, 4] of the same molecule?
A: 0.15 µM

Q: What does the source list for OC(CCN1CC=C(c2ccc(F)cc2)CC1)c1ccc(F)c2ccccc12 (stereo not drawn) [Compound 6, 1-(4-fluoronaphthalen-1-yl)-3-[4-(4-fluorophenyl)-3,6-dihydropyridin-1(2H)-yl]propan-1-ol]?
A: CC50 at 48 h [2]: > 50 µM; IC50 [1, 4]: 0.4 µM

Q: Which CC50 (VERO cells) does the source give for Cl.O=[N+]([O-])c1ccc(N2CCC(NCCC(O)c3ccc(F)cc3)CC2)c(C(F)(F)F)c1 (stereo not drawn) [Compound 7] here?
A: 30.2 µM

Q: And the IC50 [1, 3]?
A: 0.48 µM

Q: What about the cytotoxicity after administration (mice) of the same molecule?
A: No cytotoxicity was detected

Q: And the “percentage of inhibition of parasitaemia” value (P. berghei ANKA; 50 mg/kg/day oral)?
A: 76%

Q: For OC(CCN1CC=C(c2ccc(F)cc2)CC1)c1ccc(F)cc1 (stereo not drawn) [Compound 8, 1-(4-fluorophenyl)-3-[4-(4-fluorophenyl)-3,6-dihydropyridin-1 (2H)-yl]propan-1-ol], which CC50 at 48 h [2] is on record?
A: > 100 µM

Q: And the melting point?
A: 199 to 201 °C

Q: What about the IC50 [1, 4] of the same molecule?
A: 0.66 µM
